Assay results as given in patent publication US8946296B2, “Substituted heteroaryl- and aryl-cyclopropylamine acetamides and their use” (Oryzon Genomics S.A., priority 2009, dated 2015).
Where a name gives a salt, the structure may show the parent alone.

How the values were obtained:
LSD1 = LSD1 (Homo sapiens, UniProt O60341); test: LSD1 inhibition assay (Amplex Red peroxide/peroxidase-coupled, di-methylated H3-K4 peptide substrate)
MAO-A = biological target: T1, MAO-A (Homo sapiens, UniProt P21397); test: Monoamine oxidase assay, MAO-A (kynuramine to 4-hydroxyquinoline fluorescence); assay type: biochemical; settings: Ki (IC50) range class; human recombinant MAO-A, kynuramine substrate
T1 construct: purchased Sigma Aldrich
T1 sequence (P21397 1-527): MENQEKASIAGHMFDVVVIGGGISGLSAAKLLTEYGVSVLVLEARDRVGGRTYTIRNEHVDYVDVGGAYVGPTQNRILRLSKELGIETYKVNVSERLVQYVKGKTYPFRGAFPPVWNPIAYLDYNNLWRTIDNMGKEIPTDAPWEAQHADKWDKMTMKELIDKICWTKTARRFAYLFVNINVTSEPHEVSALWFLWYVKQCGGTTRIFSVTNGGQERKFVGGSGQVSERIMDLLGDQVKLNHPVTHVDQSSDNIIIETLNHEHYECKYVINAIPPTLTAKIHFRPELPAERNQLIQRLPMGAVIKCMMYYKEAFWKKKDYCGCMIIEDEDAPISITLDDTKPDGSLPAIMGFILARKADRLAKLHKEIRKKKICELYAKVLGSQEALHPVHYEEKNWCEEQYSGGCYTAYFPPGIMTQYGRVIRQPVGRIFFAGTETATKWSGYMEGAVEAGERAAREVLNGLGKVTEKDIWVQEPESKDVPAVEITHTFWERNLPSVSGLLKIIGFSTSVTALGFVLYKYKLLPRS
Text: (§1) Human recombinant monoamine oxidase proteins MAO-A and MAO-B were purchased from Sigma Aldrich. […] In order to monitor MAO enzymatic activities and/or their inhibition rate by inhibitor(s) of interest, a fluorescent-based (inhibitor)-screening assay was set up. 3-(2-Aminophenyl)-3-oxopropanamine (kynuramine dihydrobromide, Sigma Aldrich), a non fluorescent compound was chosen as a substrate. Kynuramine is a non-specific substrate for both MAOs activities. While undergoing oxidative deamination by MAO activities, kynuramine is converted into 4-hydroxyquinoline (4-HQ), a resulting fluorescent product.
(§2) The monoamine oxidase activity was estimated by measuring the conversion of kynuramine into 4-hydroxyquinoline. Assays were conducted in 96-well black plates with clear bottom (Corning) in a final volume of 100 μL. The assay buffer was 100 mM HEPES, pH 7.5. Each experiment was performed in triplicate within the same experiment.
(§3) The oxidative deamination of the substrate was stopped by adding 50 μL (v/v) of NaOH 2N.
(§4) The Ki of each inhibitor was measure at Vmax/2.

MAO-B = biological target: T2, MAO-B (Homo sapiens, UniProt P27338); test: Monoamine oxidase assay, MAO-B (kynuramine to 4-hydroxyquinoline fluorescence); assay type: biochemical; settings: Ki (IC50) range class; human recombinant MAO-B, kynuramine substrate
T2 construct: purchased Sigma Aldrich
T2 sequence (P27338 1-520): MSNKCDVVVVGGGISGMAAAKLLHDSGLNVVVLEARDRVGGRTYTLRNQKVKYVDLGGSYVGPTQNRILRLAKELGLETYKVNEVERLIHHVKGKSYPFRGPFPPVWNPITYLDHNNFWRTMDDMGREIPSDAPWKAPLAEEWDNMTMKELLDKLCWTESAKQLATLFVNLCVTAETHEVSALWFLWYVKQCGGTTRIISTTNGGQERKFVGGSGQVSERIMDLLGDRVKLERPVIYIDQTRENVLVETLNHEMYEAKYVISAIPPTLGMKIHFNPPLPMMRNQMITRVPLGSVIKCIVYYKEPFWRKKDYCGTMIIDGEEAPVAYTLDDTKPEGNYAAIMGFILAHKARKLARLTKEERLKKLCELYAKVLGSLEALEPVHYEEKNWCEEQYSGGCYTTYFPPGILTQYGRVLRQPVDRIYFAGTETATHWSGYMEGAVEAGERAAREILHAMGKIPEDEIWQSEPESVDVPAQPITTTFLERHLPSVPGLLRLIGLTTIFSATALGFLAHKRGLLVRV
Text: as §1, §2, §3, §4

Ki (LSD1) | Ki (MAO-A) | Ki (MAO-B) | SMILES
10 to 100 nM | > 40000 nM | 100 to 500 nM | NC(=O)CN[C@@H]1C[C@H]1c1ccc(OCc2cccc(Cl)c2)cc1 (relative stereo) [Example 6, 2-((trans)-2-(4-(3-chlorobenzyloxy)phenyl)cyclopropylamino)acetamide hydrochloride]
10 to 100 nM | 5000 to 40000 nM | 100 to 500 nM | NC(=O)CN[C@@H]1C[C@H]1c1ccc(OCc2cccc(F)c2)cc1 (relative stereo) [Example 5, 2-((trans)-2-(4-(3-fluorobenzyloxy)phenyl)cyclopropylamino)acetamide hydrochloride]
10 to 100 nM | 5000 to 40000 nM | 100 to 500 nM | NC(=O)CN[C@@H]1C[C@H]1c1ccc(OCc2cc(F)cc(F)c2)cc1 (relative stereo) [Example 9, 2((trans)-2-(4-(3,5-difluorobenzyloxy)phenyl)cyclopropylamino)acetamide]
10 to 100 nM | 5000 to 40000 nM | 100 to 500 nM | NC(=O)CN[C@@H]1C[C@H]1c1ccc(OCc2cccc(Br)c2)cc1 (relative stereo) [Example 8, 2-((trans)-2-(4-(3-bromobenzyloxy)phenyl)cyclopropylamino)acetamide]
100 to 500 nM | > 40000 nM | 100 to 500 nM | NC(=O)CN[C@@H]1C[C@H]1c1ccc(OCc2ccc(F)cc2)cc1 (relative stereo) [Example 4, 2-((trans)-2-(4-(4-fluorobenzyloxy)phenyl)cyclopropylamino)acetamide hydrochloride]
100 to 500 nM | 5000 to 40000 nM | 100 to 500 nM | NC(=O)CN[C@@H]1C[C@H]1c1ccc(-c2cccc(C(F)(F)F)c2)cc1 (relative stereo) [Example 11, 2-((trans)-2-(3′-(trifluoromethyl)biphenyl-4-yl)cyclopropylamino)acetamide]
10 to 100 nM | 500 to 5000 nM | 100 to 500 nM | N#Cc1cccc(COc2ccc([C@@H]3C[C@H]3NCC(N)=O)cc2)c1 (relative stereo) [Example 2, 2-((trans)-2-(4-(3-cyanobenzyloxy)phenyl)cyclopropylamino)acetamide hydrochloride]
10 to 100 nM | 500 to 5000 nM | 500 to 5000 nM | NC(=O)CN[C@@H]1C[C@H]1c1ccc(-c2ccc(Cl)cc2)nc1 (relative stereo) [Example 20, 2-((trans)-2-(6-(4-chlorophenyl)pyridin-3-yl)cyclopropylamino)acetamide]
100 to 500 nM | 5000 to 40000 nM | 100 to 500 nM | NC(=O)CN[C@@H]1C[C@H]1c1ccc(OCc2ccccc2)cc1 (relative stereo) [Example 3, 2-((trans)-2-(4-(benzyloxy)phenyl)cyclopropylamino)acetamide]
100 to 500 nM | > 40000 nM | 100 to 500 nM | NC(=O)CN[C@@H]1C[C@H]1c1ccc(OCc2ccc(Cl)cc2)cc1 (relative stereo) [Example 7, 2-((trans)-2-(4-(4-chlorobenzyloxy)phenyl)cyclopropylamino)acetamide hydrochloride]
100 to 500 nM | > 40000 nM | 100 to 500 nM | NC(=O)CN[C@H]1C[C@@H]1c1ccc(-c2ccc(-c3ccccc3)cc2)cc1 (stereo in doubt) [Example 12, 2-(2-[1,1′;4′,1″]Terphenyl-4″-yl-cyclopropylamino)acetamide]
10 to 100 nM | 5000 to 40000 nM | 100 to 500 nM | N#Cc1ccc(COc2ccc([C@@H]3C[C@H]3NCC(N)=O)cc2)cc1 (relative stereo) [Example 1, 2-((trans)-2-(4-(4-cyanobenzyloxy)phenyl)cyclopropylamino)acetamide hydrochloride]
10 to 100 nM | 5000 to 40000 nM | 100 to 500 nM | NC(=O)CN[C@@H]1C[C@H]1c1ccc(OCCc2ccccc2)cc1 (relative stereo) [Example 10, 2-((trans)-2-(4-phenethoxyphenyl)cyclopropylamino)acetamide]
